# Test results as given in patent publication US7230033B2, “Pest control compositions and methods for their use” (United States of America as represented by the Secretary of …, priority 2000, dated 2007).
# Legend:
# [1] = system: Xenopsylla cheopis adults; experiment: Residual activity, aged treated vials, fleas; assay type: in vivo
# Experimental: Briefly, groups of 10 nymphal I. scapularis and X. cheopis fleas were used in all tests (more than a total of 5,240 nymphs and 4,860 fleas were exposed to the compounds). The inner surface of 2-dram friction cap vials were treated with the compound/acetone solution, or acetone only as a control, and left to air-dry overnight (see also, Panella et al., J. Med. Entomol., 42(3):352-358, 2005. Three to 4 holes were made in the plastic cap to allow for air exchange. Nymphal ticks and adult fleas were then placed directly into the vials using forceps. Vials containing ticks or fleas were placed in desiccators for 24 h at 21° C. and 90% RH. Morbidity and mortality was recorded at 1, 2, 4, 8, and 24 h after initial exposure.
# Ae. aegypti adults = experiment: Adult mosquito bottle bioassay; assay type: in vivo, Aedes aegypti
# Ixodes scapularis nymphs = experiment: Residual activity, aged treated vials, ticks; assay type: in vivo
# [2] = system: ticks, fleas, and mosquitoes; experiment: Residual activity, general statements (Examples 9, 17); assay type: in vivo; conditions: ticks
# [3] = system: adult I. scapularis ticks; experiment: Treated-vial biocidal screening with 2% acetone solutions (Example 2), adult ticks, residual; assay type: in vivo, Ixodes scapularis; conditions: treated vials sat 4 wk; arthropods added for the final 24 h
# Experimental: (§1) Samples of the compounds listed below were obtained as described in Example 1, and screened for biocidal activities against nymphal Ixodes scapularis. In this example, 2% acetone solutions (wt/vol) of the compounds were applied to inner surfaces of 2-dram friction cap vials. Vials and caps were treated then allowed to dry for a minimum of 4 hours before placing 10 nymphs in each container. These same vials were used to challenge additional nymphs and adult I. scapularis ticks and adult Xenopsylla cheopis fleas through five weeks to observe any possible residual activity.
# (§2) Numbers in parentheses refer to length of treatment in terms of hours (h) or weeks (wk). Data is presented in terms of number killed/number tested. For test periods longer than 24 hours, the treated vials were allowed to sit for the stated period after drying (72 h, 4 wk, or 5 wk) and each group of arthropods was added to the vials for the final 24 h of the test period.
# [4] = system: adult Xenopsylla cheopis fleas; experiment: Treated-vial biocidal screening with 2% acetone solutions (Example 2), adult fleas, residual; assay type: in vivo; conditions: treated vials sat 5 wk; arthropods added for the final 24 h
# Experimental: as §1, §2
# Aedes aegypti adults = experiment: Residual activity, aged treated bottles, mosquitoes; assay type: in vivo
# [5] = Aedes aegypti adult mosquitoes, alone, or 1:1 with carvacrol (in parenthesis)
# [6] = 4 weeks after treatment, NE = not effective
structure (smiles),measurement,setting,value
"C=C(C)[C@@H]1CCC2=CC(=O)C[C@@H](C)[C@]2(C)C1 [Compound 7, Nootkatone]","Slope, residual activity",[1]; 1 week after treatment,2.546
same,"LC90, residual activity","[1]; 1 week after treatment, NE = not effective","0.05 percent concentration, wt:vol"
same,"Slope, residual activity",[1]; 2 weeks after treatment,2.033
same,"LC50, residual activity",[1]; 4 weeks after treatment,"0.031 percent concentration, wt:vol"
same,LC90,"Ae. aegypti adults; 24 h exposure, NE = not effective at concentrations tested","0.0092 percent concentration, wt:vol"
same,Slope,"Ae. aegypti adults; 24 h exposure, probit",6.22
same,LC50 (15 min),Ae. aegypti adults; [5],0.035 % (wt:vol)
same,LC50 (24 h),Ae. aegypti adults; [5],0.0057 % (wt:vol)
same,LC90 (15 min),Ae. aegypti adults; [5],0.119 % (wt:vol)
same,LC90 (24 h),Ae. aegypti adults; [5],0.0092 % (wt:vol)
same,LC50 (15 min),"Ae. aegypti adults; Aedes aegypti adult mosquitoes, alone, or 1:1 with carvacrol (in parenthesis), listed as compound 7",0.035 % (wt:vol)
same,"Slope, residual activity",Ixodes scapularis nymphs; 1 week after treatment,1.682
same,"Slope, residual activity",Ixodes scapularis nymphs; 2 weeks after treatment,1.586
same,"Slope, residual activity",Ixodes scapularis nymphs; 4 weeks after treatment,1.609
same,"LC50, residual activity",Ixodes scapularis nymphs; [6],"0.026 percent concentration, wt:vol"
same,residual activity,[2],considerable biological activity through the four week time period
same,"I. scapularis adults (4 wk), number killed/number tested",[3],5/5
same,"X. cheopis adults (5 wk), number killed/number tested",[4],5/5
same,"LC90, residual activity",Aedes aegypti adults; 1 week after treatment,"0.054 percent concentration, wt:vol"
same,"Slope, residual activity",Aedes aegypti adults; 1 week after treatment,3.043
same,"Slope, residual activity",Aedes aegypti adults; 2 weeks after treatment,3.342
same,"LC90, residual activity","Aedes aegypti adults; 2 weeks after treatment, NE = not effective","0.046 percent concentration, wt:vol"
same,"Slope, residual activity",Aedes aegypti adults; 4 weeks after treatment,2.698
same,"LC90, residual activity",Aedes aegypti adults; [6],"0.038 percent concentration, wt:vol"
